Among the data in ChEMBL document CHEMBL5625159, “Challenges for the development of mutant isocitrate dehydrogenases 1 inhibitors to treat glioma” (Eur J Med Chem, 2023) are IC50 and Kp values, retold here.

T1 sequence (O75874 2-414 R132H limits assumed): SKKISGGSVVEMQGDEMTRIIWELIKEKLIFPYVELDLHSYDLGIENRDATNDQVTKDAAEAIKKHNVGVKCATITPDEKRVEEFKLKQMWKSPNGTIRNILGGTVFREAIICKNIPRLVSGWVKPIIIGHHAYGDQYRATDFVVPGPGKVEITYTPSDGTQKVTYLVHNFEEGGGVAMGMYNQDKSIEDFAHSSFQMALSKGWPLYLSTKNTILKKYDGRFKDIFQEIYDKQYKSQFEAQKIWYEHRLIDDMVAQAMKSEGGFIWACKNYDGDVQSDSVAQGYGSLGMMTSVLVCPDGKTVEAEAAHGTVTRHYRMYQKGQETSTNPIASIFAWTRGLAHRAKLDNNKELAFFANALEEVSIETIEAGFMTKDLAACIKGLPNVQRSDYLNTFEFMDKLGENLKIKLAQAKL
Sequence of Isocitrate dehydrogenase [NADP] cytoplasmic (Homo sapiens, UniProt O75874, R132C) (O75874 2-414 R132C limits assumed): as the sequence (O75874 2-414 R132H limits assumed) above, with H131C counted along it

The first data set has as its target Isocitrate dehydrogenase [NADP] cytoplasmic (Homo sapiens, UniProt O75874, R132C). In words: Inhibition of IDH1 R132C mutant (unknown origin) expressed in Escherichia coli BL21 (DE3) cells.
Settings: not given
As for `C=CC(=O)N1CCN(C(CC)c2ccc([C@H](C)Nc3nccc(N4CCOC4=O)n3)cc2)CC1` (some centres undefined), the half-inhibitory concentration (IC50) was determined as 568 nM.

In turn, `CC(C)n1nc(C2=C(c3cn(CCCn4ccnc4)c4cc(Cl)ccc34)C(=O)NC2=O)c2cccnc21` returned a half-maximal inhibitory concentration (IC50) of 380 nM.

`C=CC(=O)N1CCN(C(CC2CC2)c2ccc([C@H](C)Nc3nc(F)cc(N4C(=O)OCC4(C)C)n3)cc2)CC1` (some centres undefined): inhibition was half-maximal at 5 nM (IC50).

The next data set addresses T1, Isocitrate dehydrogenase [NADP] cytoplasmic (Homo sapiens, UniProt O75874, R132H). The data set is described as follows: Inhibition of N-terminal His-tagged human recombinant IDH1 R132H mutant (1 to 414) expressed in Sf9 incubated for 60 mins by size-exclusion chromatography analysis.
Settings: not given
(In general: SEC sorts molecules by how far they enter the pores of the column.)
As to `FC1(F)CC(Nc2nc(NC3CC(F)(F)C3)nc(-c3cccc(C(F)(F)F)n3)n2)C1`, the half-inhibitory concentration (IC50) was 9 nM.

Turning to `FC1(F)CCC(Nc2nc(NC3CCC(F)(F)C3)nc(-c3cccc(C(F)(F)F)n3)n2)C1` (centres undefined), the concentration for half-maximal inhibition (IC50) was 6 nM.

As to `FC(F)(F)c1cccc(-c2nc(NCC3CC3)nc(NCC3CC3)n2)n1`, the IC50 is 83 nM.

As to `FC1(F)CCC(Nc2nc(NC3CCC(F)(F)CC3)nc(-c3cccc(C(F)(F)F)n3)n2)CC1`, the IC50 was found to be 27 nM.

Test system in another data set: not listed separately
In words: Inhibition of IDH2 R172Q mutant (unknown origin). Also on record: species or system Homo sapiens.
Settings: not given
On to `C=CC(=O)N1CC(OCc2ccc([C@H](C)Nc3ncc4c(n3)N(CC(C)C)C(=O)OC4)cc2)C1`, for which the midpoint of inhibition, the IC50, lay at 96300 nM.

Consider `C=CC(=O)N1CCN(Cc2ccc([C@H](C)Nc3ncc4c(n3)N(C(C)C)C(=O)OC4)cc2)CC1`, for which the IC50 turned out to be 41800 nM.

Turning to `C=CC(=O)N1CCC(N(C)Cc2ccc([C@H](C)Nc3ncc4c(n3)N(CC)C(=O)OC4)cc2)CC1`, the half-inhibitory concentration (IC50) was > 100000 nM.

As to `C=CC(=O)N1CCN(Cc2ccc([C@H](C)Nc3ncc4c(n3)N(C)C(=O)OC4)cc2)CC1`, the IC50 is > 100000 nM.

The next data set concerns the target T1, Isocitrate dehydrogenase [NADP] cytoplasmic. In words: Inhibition of human IDH1 R132H mutant.
Settings: not given
In turn, `C[C@H](Nc1nccc(N2CCC(N)C2=O)n1)c1nc(-c2ccc(Cl)cc2)cs1` (some centres undefined) gave an IC50 of 1680 nM.

On to `CCOC(=O)[C@@H]1CCN(c2ccnc(N[C@@H](C)c3nc(-c4ccc(Cl)cc4)no3)n2)C1=O`, for which the IC50 is > 50000 nM.

Consider `C[C@H](Nc1nccc(N2CCCC2=O)n1)c1cc(-c2ccc(Cl)cc2)no1`, for which 271 nM corresponded to half-maximal inhibition (IC50).

As for `C[C@H](Nc1nccc(N2CC[C@H](C)C2=O)n1)c1cc(-c2ccc(Cl)cc2)no1`, 358 nM corresponded to half-maximal inhibition (IC50).

`C[C@H](Nc1nccc(N2CCCC2=O)n1)c1nc(-c2ccc(Cl)cc2)cs1` displayed a concentration for half-maximal inhibition (IC50) of 338 nM.

For the compound `C[C@H](Nc1nccc(N2CCCC2=O)n1)c1nc(-c2ccc(Cl)cc2)no1`, 413 nM corresponded to half-maximal inhibition (IC50).

In turn, `C[C@H](Nc1nccc(N2CCCC2=O)n1)c1ccc(Oc2ccccc2)cc1` registered an IC50 of 24.1 nM.

Another data set relates to HCT-116. The data set is described as follows: Antiproliferative activity against human HCT-116 cells assessed as reduction in cell viability incubated for 5 days by Celltiter-Glo assay. The conditions noted are these: HCT-116, 120 h. Format: functional, cell-based. A general note: ATP-based viability assays read luminescence as a measure of living cells.
`Cc1cc([C@H](C)Nc2nccc(N3C(=O)OC[C@@H]3[C@H](C)F)n2)ncc1-c1ccnc(C(F)(F)F)c1`: the IC50 came to 25 nM.

A further data set deals with U-87 MG. In words: Antiproliferative activity against human U-87 MG cells harboring IDH1 R132H mutant measured after 72 hrs by MTT assay.
Settings: not given
Format: functional, cell-based, U-87MG ATCC.
With `C=CC(=O)N1CCN(C(CC)c2ccc([C@H](C)Nc3nccc(N4CCOC4=O)n3)cc2)CC1` (some centres undefined), it took 2.2 nM to reach half-maximal inhibition (IC50).

Regarding `C=CC(=O)N1CC(OCc2ccc([C@H](C)Nc3ncc4c(n3)N(CC(C)C)C(=O)OC4)cc2)C1`, the IC50 stood at 1280 nM.

In turn, `C=CC(=O)N1CCN(Cc2ccc([C@H](C)Nc3ncc(F)c(N4C(=O)OCC4(C)C)n3)cc2)CC1` came in with an IC50 of 18.6 nM.

Consider `C=CC(=O)N1CCN(Cc2ccc([C@H](C)Nc3nccc(N4C(=O)OC[C@@H]4[C@@H](C)O)n3)cc2)CC1`, for which the 50% inhibitory concentration (IC50) amounted to 15.1 nM.

On to `C=CC(=O)N1CCN(Cc2ccc([C@H](C)Nc3ncc4c(n3)N(C(C)C)C(=O)OC4)cc2)CC1`, for which the IC50 stood at 2.6 nM.

`Cc1cc(-c2ccc([C@H](C)Nc3nccc(N4C(=O)OC[C@@H]4C(C)C)n3)cc2)ccc1F`: the half-maximal inhibitory concentration (IC50) stood at 680 nM.

`C=CC(=O)N1CCC(N(C)Cc2ccc([C@H](C)Nc3ncc4c(n3)N(CC)C(=O)OC4)cc2)CC1` gave a half-maximal inhibitory concentration (IC50) of 13.5 nM.

On to `C=CC(=O)N1CCN(C(CC2CC2)c2ccc([C@H](C)Nc3nc(F)cc(N4C(=O)OCC4(C)C)n3)cc2)CC1` (some centres undefined), for which the IC50 was 0.5 nM.

`C=CC(=O)N1CCN(Cc2ccc([C@H](C)Nc3ncc4c(n3)N(C)C(=O)OC4)cc2)CC1` had an IC50 of 44.9 nM.

For another data set, the target named is T1, Isocitrate dehydrogenase [NADP] cytoplasmic. The data set is described as follows: Inhibition of human recombinant IDH1 R132H mutant expressed in Escherichia coli BL21 (DE3) cells in presence of alpha-ketoglutarate and NADPH by fluorescence based biochemical assay.
Settings: not given
Take `O=C(Nc1ccccc1)c1nn(Cc2ccc(F)cc2)c2c1CN(C(=O)c1ccc[nH]1)CC2`: the concentration for half-maximal inhibition (IC50) worked out at 590 nM.

Another data set shares this target. In words: Inhibition of full length N-terminal GST-tagged human IDH1 R132H mutant expressed in Escherichia coli in presence of alpha-KG by fluorescence based biochemical assay.
Settings: not given
As for `CC(C)n1nc(C2=C(c3cn(CCCn4ccnc4)c4cc(Cl)ccc34)C(=O)NC2=O)c2cccnc21`, the IC50 was determined as 50 nM.

Test system in a further data set: not listed separately
The data set is described as follows: Brain to plasma ratio in mouse at 50 mg/kg, iv. Format: ADME, organism-based. Conditions: brain and plasma, read-out: BPR.
With `Cc1cc([C@H](C)Nc2nccc(N3C(=O)OC[C@@H]3[C@H](C)F)n2)ncc1-c1ccnc(C(F)(F)F)c1`, the Kp is 0.62.

A further data set deals with Isocitrate dehydrogenase [NADP], mitochondrial (Homo sapiens, UniProt P48735, R140Q). The data set is described as follows: Inhibition of N-terminal His-tagged human recombinant IDH2 R140Q mutant (41 to 452) expressed in baculovirus system incubated for 60 mins by size-exclusion chromatography analysis.
Sequence of Isocitrate dehydrogenase [NADP], mitochondrial (P48735 40-452 R140Q limits assumed): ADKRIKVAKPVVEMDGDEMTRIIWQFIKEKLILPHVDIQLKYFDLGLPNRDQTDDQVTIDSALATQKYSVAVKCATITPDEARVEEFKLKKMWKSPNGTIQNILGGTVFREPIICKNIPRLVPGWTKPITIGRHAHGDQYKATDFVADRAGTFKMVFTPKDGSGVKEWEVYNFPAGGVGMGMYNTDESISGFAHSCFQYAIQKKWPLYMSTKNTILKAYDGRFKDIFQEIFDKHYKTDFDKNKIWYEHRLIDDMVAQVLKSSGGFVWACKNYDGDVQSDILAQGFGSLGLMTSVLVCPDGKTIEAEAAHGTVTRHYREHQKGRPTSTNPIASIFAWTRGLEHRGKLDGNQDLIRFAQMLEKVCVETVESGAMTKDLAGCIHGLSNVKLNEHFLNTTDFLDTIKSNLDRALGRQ
Settings: not given
In the case of `FC1(F)CC(Nc2nc(NC3CC(F)(F)C3)nc(-c3cccc(C(F)(F)F)n3)n2)C1`, the IC50 came to 13 nM.

On to `FC1(F)CCC(Nc2nc(NC3CCC(F)(F)C3)nc(-c3cccc(C(F)(F)F)n3)n2)C1` (centres undefined), for which the half-maximal inhibitory concentration (IC50) was found to be 16 nM.

In the next data set the target is Isocitrate dehydrogenase [NADP] cytoplasmic (Homo sapiens, UniProt O75874). The data set is described as follows: Inhibition of full length N-terminal GST-tagged human wild type IDH1 expressed in Escherichia coli in presence of NADPH by fluorescence based biochemical assay.
Sequence of Isocitrate dehydrogenase [NADP] cytoplasmic (Homo sapiens, UniProt O75874) (O75874 whole entry): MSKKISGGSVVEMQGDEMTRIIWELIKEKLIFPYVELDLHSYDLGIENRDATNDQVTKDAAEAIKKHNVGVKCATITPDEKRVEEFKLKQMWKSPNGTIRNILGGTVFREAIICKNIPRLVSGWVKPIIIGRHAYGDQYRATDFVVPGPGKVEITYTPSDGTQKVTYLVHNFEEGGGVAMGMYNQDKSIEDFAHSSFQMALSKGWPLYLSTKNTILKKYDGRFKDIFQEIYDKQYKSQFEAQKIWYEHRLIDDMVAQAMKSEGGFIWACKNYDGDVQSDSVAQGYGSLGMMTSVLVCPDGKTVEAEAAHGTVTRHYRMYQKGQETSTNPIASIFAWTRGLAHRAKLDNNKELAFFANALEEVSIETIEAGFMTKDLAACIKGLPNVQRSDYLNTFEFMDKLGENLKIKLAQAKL
Settings: not given
`CC(C)n1nc(C2=C(c3cn(CCCn4ccnc4)c4cc(Cl)ccc34)C(=O)NC2=O)c2cccnc21`: the IC50 was ≥ 20000 nM.

The test system of another data set is HCT-116. In words: Antiproliferative activity against human HCT-116 cells assessed as reduction in cell growth by MTT assay. Format: functional, cell-based.
Settings: not given
(In general: Tetrazolium assays rely on reduction of a dye to a coloured formazan, in cell work by metabolically active cells.)
Take `Cc1cc([C@H](C)Nc2nccc(N3C(=O)OC[C@@H]3[C@H](C)F)n2)ncc1-c1ccnc(C(F)(F)F)c1`: the concentration for half-maximal inhibition (IC50) worked out at 24 nM.

The subject of a further data set is HT-1080. The data set is described as follows: Antiproliferative activity against human HT-1080 cells harboring IDH1 […] mutant measured after 72 hrs by MTT assay. Format: functional, cell-based. The conditions noted are these: HT-1080, 72 h.
`C=CC(=O)N1CCN(C(CC)c2ccc([C@H](C)Nc3nccc(N4CCOC4=O)n3)cc2)CC1` (some centres undefined): the IC50 turned out to be 11.8 nM.

The compound `C=CC(=O)N1CCN(Cc2ccc([C@H](C)Nc3ncc(F)c(N4C(=O)OCC4(C)C)n3)cc2)CC1` registered a concentration for half-maximal inhibition (IC50) of 69.6 nM.

The compound `C=CC(=O)N1CCN(Cc2ccc([C@H](C)Nc3nccc(N4C(=O)OC[C@@H]4[C@@H](C)O)n3)cc2)CC1` displayed an IC50 of 211 nM.

Regarding `C=CC(=O)N1CCN(Cc2ccc([C@H](C)Nc3ncc4c(n3)N(C(C)C)C(=O)OC4)cc2)CC1`, the IC50 was 9.39 nM.

`Cc1cc(-c2ccc([C@H](C)Nc3nccc(N4C(=O)OC[C@@H]4C(C)C)n3)cc2)ccc1F` displayed an IC50 of 428 nM.

For `C=CC(=O)N1CCC(N(C)Cc2ccc([C@H](C)Nc3ncc4c(n3)N(CC)C(=O)OC4)cc2)CC1`, the IC50 was 1200 nM.

Consider `C=CC(=O)N1CCN(C(CC2CC2)c2ccc([C@H](C)Nc3nc(F)cc(N4C(=O)OCC4(C)C)n3)cc2)CC1` (some centres undefined), for which it took 1 nM to reach half-maximal inhibition (IC50).

The compound `C=CC(=O)N1CCN(Cc2ccc([C@H](C)Nc3ncc4c(n3)N(C)C(=O)OC4)cc2)CC1` came in with an IC50 of 2080 nM.

A further data set addresses T1, Isocitrate dehydrogenase [NADP] cytoplasmic. In words: Inhibition of human recombinant IDH1 R132H mutant expressed in Escherichia coli.
Settings: not given
Regarding `C=CC(=O)N1CCN(C(CC2CC2)c2ccc([C@H](C)Nc3nc(F)cc(N4C(=O)OCC4(C)C)n3)cc2)CC1` (some centres undefined), the half-inhibitory concentration (IC50) was determined as 5 nM.

The IC50 is the point on the concentration scale where inhibition reaches its midpoint.
